Earlier results as cited in US11661525B2, “Inkjet ink and inkjet recording apparatus” (KYOCERA Document Solutions Inc., priority 2020, dated 2023).
Like-named read-outs stand apart in the source and are kept apart here.

[1] = literature values of the octanol/water partition coefficient of representative water-soluble organic solvents

Row | LogP [1] | LogP (octanol/water partition coefficient of the water-soluble organic solvent used in the inks (Tables 6 and 8)) | Compound
1 | 0.07 | 0.01 | CC(CCO)CCO [3-Methyl-1,5-pentanediol]
2 | −0.15 | – | CCOCCOCCO [Diethylene glycol monoethyl ether]
3 | 0.66 | – | CCCCCCC(O)CO (centres unmarked) [1,2-Octanediol]
4 | −1.98 | – | OCCOCCOCCO [Triethylene glycol]
